Earlier results on one compound are cited in EP3320903B1 (HK inno.N Corporation, priority 2015, dated 2017).

Take `CC(C)c1nc(N(C)S(C)(=O)=O)nc(-c2ccc(F)cc2)c1/C=C/[C@@H](O)C[C@@H](O)CC(=O)O` [rosuvastatin, (3R,5S,6E)-7-[4-(4-fluorophenyl)-2-(N-methylmethanesulfonamido)-6-(propan-2-yl)pyrimidin-5-yl]-3,5-dihydroxyhepten-6-oic acid]: the pKa is on record as about 4.6.

For orientation: pKa means the pH at which an ionisable group is half protonated.
